# Columns and labels:
# LXR = test: In vitro transactivation assay in CV-1 cells, antagonism of T0901317-induced Gal-LXR activation; format: cell-based; conditions: at 10 μM, with 1 μM agonist T0901317, dose-dependent
# Excerpt: In vitro screens such as the transactivation assay can be used to measure the ability of a compound to inhibit a nuclear receptor regulating lipid or carbohydrate uptake, synthesis or metabolism. In the assay described herein compounds can be identified that can inhibit activation of the following nuclear receptors: LXR, PPARα, PPARγ and FXR. This activity can be useful to treat lipid disorders such as hypercholesteremia and obesity.
# Cell line: Kidney Green Monkey CV-1 cells.
# Growing culturing medium: Dulbecco's modified Eagle's medium (DMEM) supplememnted with 10% fetal calf serum (FCS).
# Procedure: CV-1 cells were plated in 48 well-plate culture plates, at a density of 10,000 cells/well, 24 h prior to transfection. One to three hours before transfection, cells were fed with fresh medium. A modified calcium phosphate precipitation procedure was used for transient transfection (Pfahl, M. et al., 1990, Methods in Enzymology 189: 256).
# Typically, 40 ng reporter plasmid and 20 ng of each receptor expression vector were mixed, together with 10 ng of β-galactosidase control plasmid (pCH110, Pharmacia, Piscataway, N.J.) and Bluescript plasmid to obtain a total of 400 ng DNA per well. To this mixture 1 μl of 2.5M CaCl2 and 10 μl of BBS buffer, pH 6.95, were added afterward. […]
# [1] = system: MDA-MB-468 breast cancer cells; test: MTT anti-cancer assay, MDA-MB-468 breast cancer cells; format: cell-based, human; conditions: at 10 μM, 6 days
# Excerpt: The anti-cancer activity of the compounds of the invention herein have been tested in in vitro assays using a microculture assay with 3-(4,5-dimethylthiazol-2-yl)-2,5-diphenyltetrazolium bromide (“MTT”) a test well known to those skilled in the art. This assay has an advantage over in vivo assay in that results are obtained within a week as opposed to several months. The assay can be carried out in 96-well microtiter plates. The MTT assay is based on the production of a dark blue formazan product by dehydrogenase in the mitochondria of live tumor cells after exposure to drug for 6 days [M. C. […] Thus, only live cells are stained and can be measured at 595 nm. […]
# Treatment: Before commencing drug treatment, cells were replenished with media containing 0.5% FCS. […] As an end point, the amount of surviving cells (Live cells) was measured using a standard […] assay (MTT based), and calculated as percentage of cells treated with vehicle (DMSO) alone (% control).
# MTT assay: The assay is based on the cleavage of the yellow tetrazolium salt MTT to purple formazan crystals by dehydrogenase activity in active mitochondria. […] The formazan crystals formed are solubilized and the resulting colored solution is quantified using a scanning multiwell spectrophotometer. […]
smiles,measurement,setting,value
"CN(C)c1cc2c(cc1-c1ccc3cc(/C=C4\SC(=S)N(CC(=O)O)C4=O)ccc3c1)C(C)(C)CCC2(C)C [Compound 7, {5-[6-(3-Dimethylamino-5,5,8,8-tetramethyl-5,6,7,8-tetrahydro-naphthalen-2-yl)-naphthalen-2-ylmethylene]-4-oxo-2-thioxo-thiazolidin-3-yl}-acetic acid]",inhibition of T0901317-induced LXR activation,LXR,80–90%
same,cells killed,[1],~80%

# — patent publication US7071218B2, “N-substituted heterocycles for the treatment of hypercholesteremia, dyslipidemia and other metabolic disorders; cancer, and other diseases” (Incyte San Diego Incorporated, priority 2001, dated 2006)
